Publication PMC8534050, “Discovery of a Potent and Highly Isoform-Selective Inhibitor of the Neglected Ribosomal Protein S6 Kinase Beta 2 (S6K2)” (Cancers, 2021)

Legend:
FGFR4 = target: T1, FGFR4 (Homo sapiens, UniProt P22455); experiment: HotSpot kinase assay (Reaction Biology); assay type: biochemical; conditions: five-point singlicate
T1 construct: purchased Reaction Biology Corp
Procedure: (§1) The provided IC50 values were measured using the HotSpot^TM Kinase Profiling assay and conducted at Reaction Biology Corp. in their facilities in Malvern, PA, USA.

MAPKAPK2 = target: T2, MAPKAPK2 (Homo sapiens, UniProt P49137); experiment: HotSpot kinase assay (Reaction Biology); assay type: biochemical; conditions: five-point singlicate, max 5 μM
T2 construct: purchased in-house DSF (thermal shift) panel per Fedorov et al; IC50 follow-up at Reaction Biology Corp
T2 sequence (P49137 whole entry): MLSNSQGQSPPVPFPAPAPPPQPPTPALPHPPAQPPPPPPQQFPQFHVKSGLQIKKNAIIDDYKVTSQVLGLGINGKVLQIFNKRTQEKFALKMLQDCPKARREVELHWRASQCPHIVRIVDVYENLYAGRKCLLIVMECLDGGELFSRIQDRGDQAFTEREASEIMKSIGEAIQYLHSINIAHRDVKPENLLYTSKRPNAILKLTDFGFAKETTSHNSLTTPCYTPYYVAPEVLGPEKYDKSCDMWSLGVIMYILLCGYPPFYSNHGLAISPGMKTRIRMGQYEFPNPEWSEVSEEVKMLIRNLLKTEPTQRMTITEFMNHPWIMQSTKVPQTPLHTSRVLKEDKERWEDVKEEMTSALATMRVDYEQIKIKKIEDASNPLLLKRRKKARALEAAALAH
Procedure: as §1

MAPKAPK3 = target: T3, MAPKAPK3 (Homo sapiens, UniProt Q16644); experiment: HotSpot kinase assay (Reaction Biology); assay type: biochemical; conditions: five-point singlicate, max 5 μM
T3 construct: purchased Reaction Biology Corp
T3 sequence (Q16644 whole entry): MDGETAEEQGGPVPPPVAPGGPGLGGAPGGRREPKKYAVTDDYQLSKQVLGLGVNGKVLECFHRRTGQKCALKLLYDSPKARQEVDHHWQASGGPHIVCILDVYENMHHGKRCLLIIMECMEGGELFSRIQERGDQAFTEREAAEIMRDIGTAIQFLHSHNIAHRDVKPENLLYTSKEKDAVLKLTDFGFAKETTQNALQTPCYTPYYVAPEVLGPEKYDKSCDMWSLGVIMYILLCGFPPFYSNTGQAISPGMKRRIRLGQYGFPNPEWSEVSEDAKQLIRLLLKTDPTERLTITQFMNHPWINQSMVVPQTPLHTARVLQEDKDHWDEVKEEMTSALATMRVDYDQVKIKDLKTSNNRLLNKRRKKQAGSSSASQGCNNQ
Procedure: as §1

S6K1 = target: T4, S6K1 (Homo sapiens, UniProt P23443); experiment: HotSpot kinase assay (Reaction Biology); assay type: biochemical
T4 construct: purchased Reaction Biology Corp
T4 sequence (P23443 whole entry): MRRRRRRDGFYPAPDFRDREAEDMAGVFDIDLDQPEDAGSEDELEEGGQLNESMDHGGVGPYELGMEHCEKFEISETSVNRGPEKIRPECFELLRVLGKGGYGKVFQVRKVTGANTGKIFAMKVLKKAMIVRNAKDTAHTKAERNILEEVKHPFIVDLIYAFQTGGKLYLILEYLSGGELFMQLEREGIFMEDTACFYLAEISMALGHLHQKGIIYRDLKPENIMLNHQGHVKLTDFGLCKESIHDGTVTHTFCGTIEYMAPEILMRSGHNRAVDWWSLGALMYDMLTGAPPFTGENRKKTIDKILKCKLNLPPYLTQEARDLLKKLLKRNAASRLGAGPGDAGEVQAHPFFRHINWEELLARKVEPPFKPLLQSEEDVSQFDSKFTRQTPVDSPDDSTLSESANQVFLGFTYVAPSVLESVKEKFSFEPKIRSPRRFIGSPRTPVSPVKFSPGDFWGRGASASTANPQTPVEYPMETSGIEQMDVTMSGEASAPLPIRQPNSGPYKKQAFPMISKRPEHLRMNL
Procedure: as §1

S6K2 = target: T5, S6K2 (Homo sapiens, UniProt Q9UBS0); experiment: HotSpot kinase assay (Reaction Biology); assay type: biochemical; conditions: apparent IC50; five-point; compound 2 triplicate, ± standard deviation
T5 construct: purchased Reaction Biology Corp
Procedure: as §1

TTK = target: T6, TTK (Homo sapiens, UniProt P33981); experiment: HotSpot kinase assay (Reaction Biology); assay type: biochemical; conditions: five-point singlicate, max 5 μM
T6 construct: purchased Reaction Biology Corp
Procedure: as §1

[1] = Nα-acetyl lysine stability assay (HPLC); assay type: physicochemical; conditions: for half-life: read-out: half-life t1/2 towards Nα-acetyl lysine (converted)
Procedure: (§2) The Nα-acetyl lysine stability assay was performed in analogy to the GSH stability assay by substituting GSH with Nα-acetyl lysine at pH 7.4 and additionally at pH 10.2 to mimic the pKa depression often observed for biologically relevant lysines. PBS-buffer was substituted with a sodium tetraborate buffer (28 mM) for experiments at pH 10.2.
4. Nα-Acetyl Lysine Stability Assay […]
h. The stability towards Nα-acetyl lysine at pH 10.2 was corrected for the slope of the curve of the […]
Figure S11. Nα-acetyl lysine stability assay of compound 2 at pH 7.4 and pH 10.2. Error bars represent the standard deviation of triplicate measurements. AUC: area under the curve of residual starting material 2, t: time in hours.

[2] = Aqueous degradation at pH 10.2; assay type: physicochemical; conditions: sodium tetraborate buffer (28 mM), no nucleophile, read-out: t1/2 of aqueous degradation (converted)
Procedure: as §2
4. Nα-Acetyl Lysine Stability Assay

BMPR2 = target: T7, BMPR2 (Homo sapiens, UniProt Q13873); experiment: DSF thermal shift assay; assay type: binding; conditions: inhibitor 10 μM, protein 2 μM
T7 construct: purchased in-house DSF (thermal shift) panel per Fedorov et al
Procedure: (§3) Differences in the melting temperature (ΔTm) were measured as described by Fedorov et al.. Purified proteins were buffered in 25 mM HEPES (pH 7.5), 500 mM NaCl and were assayed in a 384-well plate with a final protein concentration of 2 μM in 10 μL assay volume. Inhibitors were added to a final concentration of 10 μM using an ECHO 550 acoustic dispenser (Labcyte, San José, CA, USA). As a fluorescence probe, SYPRO-Orange (Molecular Probes, Eugene, OR, USA) was added in a 1:5000 dilution. […] Data were analyzed through Boltzmann equation in the Protein Thermal Shift software (Applied Biosystems, Waltham, MA, USA). Samples were measured in technical duplicates.

BRAF = target: T8, BRAF (Homo sapiens, UniProt P15056); experiment: DSF thermal shift assay; assay type: binding; conditions: inhibitor 10 μM, protein 2 μM
T8 construct: purchased in-house DSF (thermal shift) panel per Fedorov et al
T8 sequence (P15056 whole entry): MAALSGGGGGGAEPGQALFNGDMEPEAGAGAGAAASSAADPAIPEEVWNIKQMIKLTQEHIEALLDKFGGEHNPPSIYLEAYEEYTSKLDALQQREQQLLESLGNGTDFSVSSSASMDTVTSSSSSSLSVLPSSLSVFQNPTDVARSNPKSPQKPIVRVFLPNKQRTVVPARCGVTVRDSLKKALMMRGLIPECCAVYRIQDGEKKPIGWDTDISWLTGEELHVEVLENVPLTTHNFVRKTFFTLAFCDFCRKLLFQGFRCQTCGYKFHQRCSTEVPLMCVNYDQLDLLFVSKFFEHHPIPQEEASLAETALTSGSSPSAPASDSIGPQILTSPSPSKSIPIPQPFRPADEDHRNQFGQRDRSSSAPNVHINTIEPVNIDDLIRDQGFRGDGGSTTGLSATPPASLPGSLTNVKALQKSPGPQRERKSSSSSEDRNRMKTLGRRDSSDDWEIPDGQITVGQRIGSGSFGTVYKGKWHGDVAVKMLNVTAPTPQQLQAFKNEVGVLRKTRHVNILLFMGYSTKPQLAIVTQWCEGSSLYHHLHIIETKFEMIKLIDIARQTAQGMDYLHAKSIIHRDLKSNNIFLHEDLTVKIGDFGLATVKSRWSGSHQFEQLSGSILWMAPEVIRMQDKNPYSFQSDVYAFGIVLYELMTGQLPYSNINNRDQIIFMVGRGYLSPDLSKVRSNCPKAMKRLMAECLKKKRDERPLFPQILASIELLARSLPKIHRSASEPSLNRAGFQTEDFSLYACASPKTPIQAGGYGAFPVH
Procedure: as §3

CAMK2B = target: T9, CAMK2B (Homo sapiens, UniProt Q13554); experiment: DSF thermal shift assay; assay type: binding; conditions: inhibitor 10 μM, protein 2 μM
T9 construct: purchased in-house DSF (thermal shift) panel per Fedorov et al; IC50 follow-up at Reaction Biology Corp
Procedure: as §3

DMPK1 = target: T10, DMPK1 (Homo sapiens, UniProt Q09013); experiment: DSF thermal shift assay; assay type: binding; conditions: inhibitor 10 μM, protein 2 μM
T10 construct: purchased in-house DSF (thermal shift) panel per Fedorov et al
Procedure: as §3

EPHA2 = target: T11, EPHA2 (Homo sapiens, UniProt P29317); experiment: DSF thermal shift assay; assay type: binding; conditions: inhibitor 10 μM, protein 2 μM
T11 construct: purchased in-house DSF (thermal shift) panel per Fedorov et al
Procedure: as §3

MAP3K5 = target: T12, MAP3K5 (Homo sapiens, UniProt Q99683); experiment: DSF thermal shift assay; assay type: binding; conditions: inhibitor 10 μM, protein 2 μM
T12 construct: purchased in-house DSF (thermal shift) panel per Fedorov et al
Procedure: as §3

MARK3 = target: T13, MARK3 (Homo sapiens, UniProt P27448); experiment: DSF thermal shift assay; assay type: binding; conditions: inhibitor 10 μM, protein 2 μM
T13 construct: purchased in-house DSF (thermal shift) panel per Fedorov et al
T13 sequence (P27448 whole entry): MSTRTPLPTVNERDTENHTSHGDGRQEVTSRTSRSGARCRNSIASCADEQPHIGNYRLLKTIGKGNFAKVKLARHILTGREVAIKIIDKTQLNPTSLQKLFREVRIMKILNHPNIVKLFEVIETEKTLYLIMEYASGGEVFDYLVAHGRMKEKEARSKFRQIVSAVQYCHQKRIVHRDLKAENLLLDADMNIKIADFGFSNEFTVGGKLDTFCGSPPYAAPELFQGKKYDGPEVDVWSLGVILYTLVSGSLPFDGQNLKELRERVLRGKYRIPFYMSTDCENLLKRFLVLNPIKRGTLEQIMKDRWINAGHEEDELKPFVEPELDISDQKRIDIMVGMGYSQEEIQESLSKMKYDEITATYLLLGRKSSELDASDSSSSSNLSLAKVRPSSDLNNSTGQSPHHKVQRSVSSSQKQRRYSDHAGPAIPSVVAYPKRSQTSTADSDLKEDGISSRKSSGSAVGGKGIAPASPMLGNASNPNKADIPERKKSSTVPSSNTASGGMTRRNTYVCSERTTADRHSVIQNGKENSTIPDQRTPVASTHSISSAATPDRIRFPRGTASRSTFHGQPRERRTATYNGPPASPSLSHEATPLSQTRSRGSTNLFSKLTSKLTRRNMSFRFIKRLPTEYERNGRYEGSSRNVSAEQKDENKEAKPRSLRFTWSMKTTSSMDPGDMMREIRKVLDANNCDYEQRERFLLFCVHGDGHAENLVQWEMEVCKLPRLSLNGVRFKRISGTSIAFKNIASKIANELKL
Procedure: as §3

NEK7 = target: T14, NEK7 (Homo sapiens, UniProt Q8TDX7); experiment: DSF thermal shift assay; assay type: binding; conditions: inhibitor 10 μM, protein 2 μM
T14 construct: purchased in-house DSF (thermal shift) panel per Fedorov et al
Procedure: as §3

PCTK1 = target: T15, PCTK1 (Homo sapiens, UniProt Q00536); experiment: DSF thermal shift assay; assay type: binding; conditions: inhibitor 10 μM, protein 2 μM
T15 construct: purchased in-house DSF (thermal shift) panel per Fedorov et al; IC50 follow-up at Reaction Biology Corp
T15 sequence (Q00536 whole entry): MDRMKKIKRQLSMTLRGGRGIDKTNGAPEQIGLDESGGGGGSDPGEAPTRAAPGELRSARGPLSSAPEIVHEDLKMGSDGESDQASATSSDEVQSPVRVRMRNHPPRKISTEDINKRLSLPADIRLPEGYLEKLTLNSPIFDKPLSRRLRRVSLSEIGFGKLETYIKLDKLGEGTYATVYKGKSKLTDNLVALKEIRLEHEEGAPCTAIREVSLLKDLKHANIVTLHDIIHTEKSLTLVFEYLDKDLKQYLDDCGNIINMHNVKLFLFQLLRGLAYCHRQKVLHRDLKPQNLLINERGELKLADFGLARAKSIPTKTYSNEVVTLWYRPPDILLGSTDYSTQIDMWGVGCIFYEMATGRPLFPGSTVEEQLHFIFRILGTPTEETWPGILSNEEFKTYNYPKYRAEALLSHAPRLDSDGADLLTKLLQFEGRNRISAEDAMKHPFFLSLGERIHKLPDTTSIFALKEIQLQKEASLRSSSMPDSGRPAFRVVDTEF
Procedure: as §3

PHKG2 = target: T16, PHKG2 (Homo sapiens, UniProt P15735); experiment: DSF thermal shift assay; assay type: binding; conditions: inhibitor 10 μM, protein 2 μM
T16 construct: purchased in-house DSF (thermal shift) panel per Fedorov et al
Procedure: as §3

RIOK2 = target: T17, RIOK2 (Homo sapiens, UniProt Q9BVS4); experiment: DSF thermal shift assay; assay type: binding; conditions: inhibitor 10 μM, protein 2 μM
T17 construct: purchased in-house DSF (thermal shift) panel per Fedorov et al; IC50 follow-up at Reaction Biology Corp
T17 sequence (Q9BVS4 whole entry): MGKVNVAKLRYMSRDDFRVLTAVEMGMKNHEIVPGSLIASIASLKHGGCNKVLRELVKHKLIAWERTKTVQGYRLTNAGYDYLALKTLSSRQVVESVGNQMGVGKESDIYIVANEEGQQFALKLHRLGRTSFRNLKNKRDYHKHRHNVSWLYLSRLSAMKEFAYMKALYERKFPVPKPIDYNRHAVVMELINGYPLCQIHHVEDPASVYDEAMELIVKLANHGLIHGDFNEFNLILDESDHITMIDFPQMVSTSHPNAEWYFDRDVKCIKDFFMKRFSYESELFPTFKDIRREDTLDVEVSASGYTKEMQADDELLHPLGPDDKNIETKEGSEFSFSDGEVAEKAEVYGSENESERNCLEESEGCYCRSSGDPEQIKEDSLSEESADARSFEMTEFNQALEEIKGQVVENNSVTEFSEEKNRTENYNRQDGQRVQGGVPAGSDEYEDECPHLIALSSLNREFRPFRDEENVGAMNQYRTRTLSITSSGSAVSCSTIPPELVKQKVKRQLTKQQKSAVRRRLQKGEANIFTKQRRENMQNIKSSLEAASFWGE
Procedure: as §3

TOPK = target: T18, TOPK (Homo sapiens, UniProt Q96KB5); experiment: DSF thermal shift assay; assay type: binding; conditions: inhibitor 10 μM, protein 2 μM
T18 construct: purchased in-house DSF (thermal shift) panel per Fedorov et al
T18 sequence (Q96KB5 whole entry): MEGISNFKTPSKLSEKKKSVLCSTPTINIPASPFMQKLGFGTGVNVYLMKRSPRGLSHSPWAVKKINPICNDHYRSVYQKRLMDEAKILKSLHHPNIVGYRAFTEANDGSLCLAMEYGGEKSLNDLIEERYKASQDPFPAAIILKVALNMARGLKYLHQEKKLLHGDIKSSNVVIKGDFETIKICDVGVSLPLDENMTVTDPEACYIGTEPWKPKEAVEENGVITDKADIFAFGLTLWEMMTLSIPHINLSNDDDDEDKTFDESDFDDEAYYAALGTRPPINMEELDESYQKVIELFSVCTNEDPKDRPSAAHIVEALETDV
Procedure: as §3

TTK1 = target: T19, TTK1 (Homo sapiens, UniProt P33981); experiment: DSF thermal shift assay; assay type: binding; conditions: inhibitor 10 μM, protein 2 μM
T19 construct: purchased in-house DSF (thermal shift) panel per Fedorov et al
Procedure: as §3

T1 sequence (P22455 22-802): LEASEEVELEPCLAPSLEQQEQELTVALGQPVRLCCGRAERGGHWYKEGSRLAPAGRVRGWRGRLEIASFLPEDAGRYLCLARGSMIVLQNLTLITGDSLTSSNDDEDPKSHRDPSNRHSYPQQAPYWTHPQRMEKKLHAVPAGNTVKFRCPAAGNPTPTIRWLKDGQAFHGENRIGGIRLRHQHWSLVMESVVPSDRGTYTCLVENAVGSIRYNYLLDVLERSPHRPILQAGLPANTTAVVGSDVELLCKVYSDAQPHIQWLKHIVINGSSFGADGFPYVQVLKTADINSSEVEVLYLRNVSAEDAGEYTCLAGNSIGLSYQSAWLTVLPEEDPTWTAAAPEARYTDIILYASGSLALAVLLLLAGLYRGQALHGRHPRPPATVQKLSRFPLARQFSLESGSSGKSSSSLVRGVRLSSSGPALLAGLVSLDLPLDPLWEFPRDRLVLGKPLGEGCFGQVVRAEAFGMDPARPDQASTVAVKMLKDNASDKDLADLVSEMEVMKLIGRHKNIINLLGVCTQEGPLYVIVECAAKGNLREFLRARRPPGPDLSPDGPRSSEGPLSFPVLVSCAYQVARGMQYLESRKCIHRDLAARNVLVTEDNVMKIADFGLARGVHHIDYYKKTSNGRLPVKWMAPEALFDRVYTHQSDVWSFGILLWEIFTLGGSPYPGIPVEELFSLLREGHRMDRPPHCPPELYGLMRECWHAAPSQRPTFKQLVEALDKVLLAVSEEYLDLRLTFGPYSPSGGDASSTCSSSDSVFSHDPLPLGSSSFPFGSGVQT

- IC50 (FGFR4): 216 nM
- IC50 (MAPKAPK2): > 5000 nM
- IC50 (MAPKAPK3): > 5000 nM
- IC50 (S6K1; five-point singlicate, max 5 μM): > 5000 nM
- activity for S6K1 (S6K1; maximum tested compound concentration of 5 μM): inactive
- IC50 (S6K2): 22 ± 1.6 nM
- IC50 (TTK): > 5000 nM
- half-life ([1]; Nα-acetyl lysine in MeCN/PBS buffer, pH 7.4): 1160 h
- half-life ([1]; Nα-acetyl lysine in sodium tetraborate buffer (28 mM), pH 10.2, corrected for aqueous degradation): 27 h
- reactivity towards Nα-acetyl lysine ([1]; physiological pH): negligible reactivity
- half-life [2]: 139 h
- ΔTm at 10 µM (BMPR2): -0.4 °C
- ΔTm at 10 µM (BRAF): -0.1 °C
- ΔTm at 10 µM (CAMK2B): -2.3 °C
- ΔTm at 10 µM (DMPK1): 0.2 °C
- ΔTm at 10 µM (EPHA2): 0.3 °C
- ΔTm at 10 µM (MAP3K5): 0.2 °C
- ΔTm at 10 µM (MARK3): 0.9 °C
- ΔTm at 10 µM (NEK7): 0.2 °C
- ΔTm at 10 µM (PCTK1): -0.2 °C
- ΔTm at 10 µM (PHKG2): 0.2 °C
- ΔTm at 10 µM (RIOK2): -0.8 °C
- ΔTm at 10 µM (TOPK): -0.5 °C
- ΔTm at 10 µM (TTK1): 1.5 °C
SMILES: CCc1cnc(Nc2nc(Cl)ccc2[N+](=O)[O-])nc1N1CCN(Cc2nc3cc(C(F)(F)F)ccc3[nH]2)CC1 [Compound 2]
